Values quoted from earlier work, collected in article PMC9916969 (International Journal of Molecular Sciences, 2023).
Where two headings read alike, the source gives them in different places.

Assays:
[1] = ethanol, difference spectra, two bands, cited from earlier work
[2] = ethanol, difference spectra, two bands, cited from earlier work; remark: listed apart in the source
[3] = ethanol, difference spectra, two bands, cited from earlier work; remark: listed apart in the source
[4] = absorption band at 337, 323, 308 nm

O=C(NCCCCCCNc1c2c(nc3ccccc13)CCCC2)c1ccccc1O [5b]
Shift of Absorbance, Zn(II) ([1]; absorption band at 237 nm): 254 nm | Shift of Absorbance, Zn(II) [1, 4]: 351 nm | Shift of Absorbance, Fe(II) ([2]; absorption band at 237 nm): 254 nm | Shift of Absorbance, Fe(II) [2, 4]: 351 nm | Shift of Absorbance, Cu(II) ([3]; absorption band at 237 nm): 254 nm | Shift of Absorbance, Cu(II) [3, 4]: 352 nm
